From PubChem BioAssay (NCI)
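Dose response: 5 concentrations. Exposure: 48 h. Format: 96-well plates. Endpoint: linear interpolation; highest concentration if not reached. GI50 = concentration required for 50% inhibition of growth. TGI: concentration producing complete growth inhibition.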

What was measured:
Assay in all cases: NCI anticancer screen, dose series, 48 h
UACC-257 melanoma = tested on: UACC-257 melanoma
BT-549 breast = tested on: BT-549 breast
MDA-MB-231 breast = tested on: MDA-MB-231 breast
SN12C renal = tested on: SN12C renal
SR leukemia = tested on: SR leukemia
COLO 205 colon = tested on: COLO 205 colon
SK-MEL-2 melanoma = tested on: SK-MEL-2 melanoma
RPMI-8226 leukemia = tested on: RPMI-8226 leukemia
SK-MEL-28 melanoma = tested on: SK-MEL-28 melanoma
HCT-15 colon = tested on: HCT-15 colon
OVCAR-5 ovarian = tested on: OVCAR-5 ovarian
SK-MEL-5 melanoma = tested on: SK-MEL-5 melanoma
SK-OV-3 ovarian = tested on: SK-OV-3 ovarian
MOLT-4 leukemia = tested on: MOLT-4 leukemia
M14 melanoma = tested on: M14 melanoma
RXF 393 renal = tested on: RXF 393 renal
LOX IMVI melanoma = tested on: LOX IMVI melanoma
U251 CNS = tested on: U251 CNS
NCI-H522 lung = tested on: NCI-H522 lung
NCI/ADR-RES ovarian = tested on: NCI/ADR-RES ovarian
HOP-92 NSCLC = tested on: HOP-92 NSCLC
OVCAR-8 ovarian = tested on: OVCAR-8 ovarian
IGROV1 ovarian = tested on: IGROV1 ovarian
SNB-75 CNS = tested on: SNB-75 CNS
MDA-MB-435 = tested on: MDA-MB-435
NCI-H226 lung = tested on: NCI-H226 lung
NCI-H460 lung = tested on: NCI-H460 lung
MCF7 breast = tested on: MCF7 breast
A498 renal = tested on: A498 renal

Cn1cc(-c2nc3c(F)cc4[nH]ncc4c3c3c2CCCC3)c(C(F)(F)F)n1
GI50 (UACC-257 melanoma): 25.9 µM | TGI (UACC-257 melanoma): > 100 µM | GI50 (BT-549 breast): 2.62 µM | TGI (BT-549 breast): 15.4 µM | GI50 (MDA-MB-231 breast): 13.1 µM | TGI (MDA-MB-231 breast): > 100 µM | GI50 (SN12C renal): 8.25 µM | TGI (SN12C renal): 81.8 µM | GI50 (SR leukemia): 5.25 µM | TGI (SR leukemia): > 100 µM | GI50 (COLO 205 colon): 19.6 µM | TGI (COLO 205 colon): 57.1 µM | GI50 (SK-MEL-2 melanoma): 13 µM | TGI (SK-MEL-2 melanoma): 30.5 µM | GI50 (RPMI-8226 leukemia): 11.5 µM | TGI (RPMI-8226 leukemia): > 100 µM | GI50 (SK-MEL-28 melanoma): 12.8 µM | TGI (SK-MEL-28 melanoma): 74.8 µM | GI50 (HCT-15 colon): 14.2 µM | TGI (HCT-15 colon): > 100 µM | GI50 (OVCAR-5 ovarian): 19.2 µM | TGI (OVCAR-5 ovarian): 86.6 µM | GI50 (SK-MEL-5 melanoma): 9.12 µM | TGI (SK-MEL-5 melanoma): 22.9 µM | GI50 (SK-OV-3 ovarian): 6.85 µM | TGI (SK-OV-3 ovarian): 38.5 µM | GI50 (MOLT-4 leukemia): 4.2 µM | TGI (MOLT-4 leukemia): 40.4 µM | GI50 (M14 melanoma): 8.54 µM | TGI (M14 melanoma): 44.2 µM | GI50 (RXF 393 renal): 2.67 µM | TGI (RXF 393 renal): 12.2 µM | GI50 (LOX IMVI melanoma): 7.8 µM | TGI (LOX IMVI melanoma): 25 µM | GI50 (U251 CNS): 18.2 µM | TGI (U251 CNS): 56.9 µM | GI50 (NCI-H522 lung): 3.45 µM | TGI (NCI-H522 lung): 19.6 µM | GI50 (NCI/ADR-RES ovarian): 15.8 µM | TGI (NCI/ADR-RES ovarian): > 100 µM | GI50 (HOP-92 NSCLC): 19.6 µM | TGI (HOP-92 NSCLC): > 100 µM | GI50 (OVCAR-8 ovarian): 15.3 µM | TGI (OVCAR-8 ovarian): > 100 µM | GI50 (IGROV1 ovarian): 4.15 µM | TGI (IGROV1 ovarian): 28.7 µM | GI50 (SNB-75 CNS): 3.69 µM | TGI (SNB-75 CNS): 16.9 µM | GI50 (MDA-MB-435): 5.36 µM | TGI (MDA-MB-435): > 100 µM | GI50 (NCI-H226 lung): 22.7 µM | TGI (NCI-H226 lung): 67.2 µM | GI50 (NCI-H460 lung): 10.4 µM | TGI (NCI-H460 lung): 33.9 µM | GI50 (MCF7 breast): 5.38 µM | TGI (MCF7 breast): 45.4 µM | GI50 (A498 renal): 1.7 µM
